Assay results published in US20110275599A1, “USE OF COLD-STABILIZED METHYLATED VEGETABLE OILS AS AN AGRICULTURAL CHEMICAL COFORMULANT” (priority 2010, published 2011).

Assay: High throughput solubility screen in Permaflo methylated soybean oil
Assay type: physicochemical
Procedure: The solubility of several agricultural active ingredients in Permaflo methylated soybean oil was determined using a high throughput solubility screen.
Liquid handler was calibrated for each liquid and vials were tared. Active ingredients were melted or dissolved and then transferred into tared vials. Solvent was removed or active was allowed to crystallize before weighing. Permaflo methylated soybean oil was added in desired quantities; vials were weighed, and capped. Mixtures were agitated (220 rpm) for 48 hours at 0° C. […] Samples were held at 0° C. for 24 hours before imaging. Samples were transferred to shaker plate on bench and were agitated for 48 hours, before seeding, holding for 24 hours and imaging. Samples were then transferred to 40° C. shaker plate, agitated for 48 hours, seeded, held and then imaged again. All samples were imaged using normal light.

SMILES | solubility in Permaflo methylated soybean oil (0° C.) [%] | solubility in Permaflo methylated soybean oil (24° C.) [%] | solubility in Permaflo methylated soybean oil (40° C.) [%]
Nc1c(Cl)c(F)nc(OCC(=O)O)c1Cl [Fluroxypyr] | 25 | 35 | 55
CCOP(=S)(OCC)Oc1nc(Cl)c(Cl)cc1Cl [Chlorpyrifos] | 35 | 55 | >60
